Source: the supplement of paper PMC10307832

What was measured:
Test in all cases: relative viability (nuclei count vs DMSO), 5 days (fraction); higher = more cells survive
[1] = compound: CCC1=CN=CN=C1N2CCN(CC2)CC3=NC4=C(N3)C=C(C=C4)C(F)(F)F + Nc1ncn([C@H]2C[C@H](O)[C@@H](CO)O2)c(=O)n1 [Decitabine] (partner 2 µM)
Outline: (§1)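 Medians of duplicate plates are given as relative viability. That measure is the nuclei count in treated wells divided by the count in vehicle wells. Counts were taken on 4× images of lung cancer cell lines in 1536-well plates, 5 days after pin-tool dosing the day after seeding with one drug alone or a fixed anchor-drug dose plus five library-drug doses (not always all listed) in √10 steps.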

Mirin + Bortezomib = compound: N=C1NC(=O)/C(=C/c2ccc(O)cc2)S1 [Mirin] + CC(C)C[C@H](NC(=O)[C@H](Cc1ccccc1)NC(=O)c1cnccn1)B(O)O [Bortezomib] (partner 0.002 µM)
Outline: as §1

[2] = compound: CCn1c(-c2nonc2N)nc2cnc(Oc3cccc(NC(=O)c4ccc(OCCN5CCOCC5)cc4)c3)cc21 + Cc1nc(Nc2ncc(C(=O)Nc3c(C)cccc3Cl)s2)cc(N2CCN(CCO)CC2)n1 [Dasatinib] (partner 0.075 µM)
Outline: as §1

Mirin + Trametinib = compound: N=C1NC(=O)/C(=C/c2ccc(O)cc2)S1 [Mirin] + CC(=O)Nc1cccc(-n2c(=O)n(C3CC3)c(=O)c3c(Nc4ccc(I)cc4F)n(C)c(=O)c(C)c32)c1 [Trametinib] (partner 0.02 µM)
Outline: as §1

Row | Cell Line | relative viability ([1]; first compound 0.04 µM) | relative viability ([1]; first compound 0.1265 µM) | relative viability ([1]; first compound 0.4 µM) | relative viability ([1]; first compound 1.265 µM) | relative viability ([1]; first compound 4 µM) | relative viability (Mirin + Bortezomib; first compound 0.25 µM) | relative viability (Mirin + Bortezomib; first compound 2.5 µM) | relative viability (Mirin + Bortezomib; first compound 7.906 µM) | relative viability (Mirin + Bortezomib; first compound 25 µM) | relative viability ([2]; first compound 0.04 µM) | relative viability ([2]; first compound 0.1265 µM) | relative viability ([2]; first compound 0.4 µM) | relative viability ([2]; first compound 1.265 µM) | relative viability ([2]; first compound 4 µM) | relative viability (Mirin + Trametinib; first compound 0.25 µM) | relative viability (Mirin + Trametinib; first compound 0.7906 µM) | relative viability (Mirin + Trametinib; first compound 2.5 µM) | relative viability (Mirin + Trametinib; first compound 7.906 µM) | relative viability (Mirin + Trametinib; first compound 25 µM) | relative viability (Mirin + Bortezomib; first compound 0.7906 µM)
1 | NCI-H1915 | 0.24 | 0.262 | 0.261 | 0.272 | 0.263 | 1.03 | 1.01 | 0.931 | 0.945 | 0.33 | 0.3 | 0.236 | 0.186 | 0.188 | 0.29 | 0.332 | 0.28 | 0.328 | 0.389 | 
2 | NCI-H2009 | 0.381 | 0.348 | 0.361 | 0.37 | 0.373 | 1 | 1.12 | 0.869 | 1.14 | 0.266 | 0.144 | 0.136 | 0.148 | 0.152 | 0.277 | 0.334 | 0.334 | 0.293 | 0.282 | 0.831
3 | ChaGo-K-1 | 0.554 | 0.471 | 0.526 | 0.501 | 0.488 | 0.984 | 0.953 | 0.628 | 0.969 | 0.592 | 0.442 | 0.365 | 0.394 | 0.395 | 0.833 | 0.836 | 0.94 | 0.756 | 0.677 | 
4 | COR-L 105 | 0.665 | 0.652 | 0.698 | 0.541 | 0.669 | 0.866 | 0.903 | 0.992 | 0.769 | 0.261 | 0.219 | 0.217 | 0.232 | 0.167 | 0.428 | 0.482 | 0.431 | 0.449 | 0.451 | 0.759
